Drawing on patent US11590129B2, “Combination therapy with an antitumor alkaloid” (PHARMA MAR, S.A., priority 2010, dated 2023), this text covers IC50 for 1 compound.

What all share (test): cells
The test system of assay [1] is U87-MG human glioblastoma cell line. To be noted: Homo sapiens, U-87 MG, 72 h.
Assay [2] relates to HGC-27 human gastric carcinoma cell line. As to conditions: Homo sapiens, HGC-27, 72 h.
In assay [3] the test system is PC-3 human prostate cancer cell line. To be noted: Homo sapiens, PC-3, 72 h. An outline of the steps:
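Cells seeded at 5,000/well, grown 24 h drug-free, then exposed to vehicle or test compounds for 72 h. Viability by MTT reduction (8 h, 37 °C), formazan dissolved in DMSO. Values given as percentage of control cell growth.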

As usually defined, the IC50 is the concentration that inhibits the measured activity by half. For `COc1ccc2[nH]c3c(c2c1)CCN[C@]31CS[C@@H]2c3c(OC(C)=O)c(C)c4c(c3[C@H](COC1=O)N1[C@@H]2[C@H]2c3c(cc(C)c(OC)c3O)C[C@@H]([C@@H]1O)N2C)OCO4` [PM01183], the values for the IC50 in assay [1], in assay [2] and in assay [3] were 4.5 nM, 0.85 nM and 2.6 nM, respectively.
